For test [1], the system named is human umbilical vein endothelial cells (HUVEC). The experiment in a line: HUVEC+VEGF proliferation assay. The test is classed as cell-based. The note with it: Homo sapiens, HUVEC, 72 h, VEGF 6 ng/mL, MTT. In short, it runs like this: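 Proliferation driven by VEGF (final 6 ng/mL) was quantified by MTT reduction (A595) 72 h after stimulation. Passage 3-4 HUVEC were starved for 24 h in 1% FBS F12K and given test agent 1 h before VEGF, with DMSO at 0.1% final.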

Test [2] deals with T1, unphosphorylated VEGF-R2Δ50 (FLVK) (Homo sapiens, UniProt P35968, DEL940-989/E990V).
T1 construct: VEGF-R2Δ50 contains residues 806-939 and 990-1171; made in house; host or cells: baculovirus/insect cell system
T1 sequence (P35968 with tags, fused parts or gaps DEL940-989/E990V limits assumed): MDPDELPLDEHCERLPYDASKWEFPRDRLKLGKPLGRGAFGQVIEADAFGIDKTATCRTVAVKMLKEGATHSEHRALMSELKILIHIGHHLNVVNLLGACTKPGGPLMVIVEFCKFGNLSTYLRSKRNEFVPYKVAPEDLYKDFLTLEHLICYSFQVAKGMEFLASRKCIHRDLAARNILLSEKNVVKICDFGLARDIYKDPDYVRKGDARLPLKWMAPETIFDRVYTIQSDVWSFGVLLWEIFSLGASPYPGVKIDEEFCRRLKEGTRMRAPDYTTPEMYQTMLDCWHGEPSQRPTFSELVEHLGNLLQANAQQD
The experiment in a line: VEGF-R2 coupled spectrophotometric assay, unphosphorylated construct (FLVK). As to conditions: for inhibition at 0.05 µM: percent inhibition at 50 nM. The test is classed as biochemical. In short, it runs like this:
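Continuous coupled assay (PEP, PK, LDH; NADH loss at 340 nm) in 200 mM HEPES pH 7.5 with 3 mM ATP, 20 mM poly(E4Y1), 60 mM MgCl2 plus 2 mM MnCl2, started with 5-40 nM non-autophosphorylated VEGF-R2Δ50. Ki values from activity across compound concentrations, Morrison fit.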

Structures are written as SMILES. pIC50, pKi: −log10 of the molar value.

For the molecule `CO[C@@H]1C[C@@H](CO)N(C(=O)c2cc3cccc(Nc4ccc5c(c4)cc(C)n5C(=O)NC4CC4)c3s2)C1` [Example 3g, 5-[2-((2S,4R)-2-Hydroxymethyl-4-methoxy-pyrrolidine-1-carbonyl)-benzo[b]thiophen-7-ylamino]-2-methyl-indole-1-carboxylic acid cyclopropylamide], the pIC50 in test [1] is 9.36. In addition, in test [2], the negative logarithm of the Ki (pKi) is 8.95 and at 0.05 µM the inhibition was 95%.

`CNC(=O)n1c(C)cc2cc(Oc3ccnc4cc(C(=O)N5C[C@H](OC)C[C@H]5CO)sc34)ccc21` [Example 3o, 5-[2-(2-Hydroxymethyl-4-methoxy-pyrrolidine-1-carbonyl)-thieno[3,2-b]pyridin-7-yloxy]-2-methyl-indole-1-carboxylic acid methylamide]: the pIC50 in test [1] was 9.62. In test [2], this molecule had a pKi of 8.87 and an inhibition at 0.05 µM of 93%.

Turning to `CNC(=O)n1c(C)cc2cc(Oc3ccnc4cc(C(=O)N5CCC[C@H]5COC)sc34)ccc21` [Example 4a, 5-(2-[(S)-2-(methoxymethyl)pyrrolidine-1-carbonyl]thieno[3,2-b]pyridin-7-yloxy)-2-methylindole-1-carboxylic acid methylamide], the pIC50 in test [1] is 9.70. In test [2], the pKi is 8.96 and 0.05 µM produced 96% inhibition.

With `CNC(=O)n1c(C)cc2cc(Oc3ccnc4cc(C(=O)N5CCC[C@@H]5COC)sc34)ccc21` [Example 4e, 5-[2-(2R-Methoxymethyl-pyrrolidine-1-carbonyl)-thieno[3,2-b]pyridin-7-yloxy]-2-methyl-indole-1-carboxylic acid methylamide], the pIC50 in test [1] was 9.22. In test [2], this molecule had a pKi of 9.85 and an inhibition at 0.05 µM of 96%.

Take `C#CCNC(=O)n1c(C)cc2cc(Oc3ccnc4cc(C(=O)N5CC[C@H](OC)C5)sc34)ccc21` [Example 4f, 5-[2-(3S-Methoxy-pyrrolidine-1-carbonyl)-thieno[3,2-b]pyridin-7-yloxy]-2-methyl-indole-1-carboxylic acid prop-2-ynylamide]: the pIC50 in test [1] is 10.24. In test [2], this molecule showed a pKi of 9.07 and an inhibition at 0.05 µM of 95%.

As to `CNC(=O)n1c(C)cc2cc(Oc3ccnc4cc(C(=O)N5CC[C@H](OC)C5)sc34)ccc21` [Example 4g, 5-[2-(3S-Methoxy-pyrrolidine-1-carbonyl)-thieno[3,2-b]pyridin-7-yloxy]-2-methyl-indole-1-carboxylic acid methylamide], the pIC50 in test [1] is 9.86. In test [2], this molecule had a pKi of 9.64 and an inhibition at 0.05 µM of 97%.

As to `CO[C@H]1CCN(C(=O)c2cc3nccc(Oc4ccc5c(c4)cc(C)n5C(=O)NC4CC4)c3s2)C1` [Example 4h, 5-[2-(3S-Methoxy-pyrrolidine-1-carbonyl)-thieno[3,2-b]pyridin-7-yloxy]-2-methyl-indole-1-carboxylic acid cyclopropylamide], the pIC50 in test [1] is 9.19. In test [2], this molecule had a pKi of 8.80 and an inhibition at 0.05 µM of 91%.

With `CNC(=O)n1c(C)cc2cc(Oc3ccnc4cc(C(=O)N5CC[C@@H](OC)C5)sc34)ccc21` [Example 4j, 5-[2-(3R-Methoxy-pyrrolidine-1-carbonyl)-thieno[3,2-b]pyridin-7-yloxy]-2-methyl-indole-1-carboxylic acid methylamide], the pIC50 in test [1] was 10.06. For the same molecule, in test [2], the pKi was 9.92 and the inhibition at 0.05 µM was found to be 96%.

For the molecule `C#CCNC(=O)n1c(C)cc2cc(Oc3ccnc4cc(C(=O)N5CC[C@@H](OC)C5)sc34)ccc21` [Example 4l, 5-[2-(3R-Methoxy-pyrrolidine-1-carbonyl)-thieno[3,2-b]pyridin-7-yloxy]-2-methyl-indole-1-carboxylic acid prop-2-ynylamide], the pIC50 in test [1] is 9.75. In test [2], this molecule showed a pKi of 9.72 and an inhibition at 0.05 µM of 96%.

Take `CNC(=O)n1c(C)cc2cc(Oc3ccnc4cc(C(=O)N5CC[C@@H](O)C5)sc34)ccc21` [Example 4n, 5-[2-(3R-Hydroxy-pyrrolidine-1-carbonyl)-thieno[3,2-b]pyridin-7-yloxy]-2-methyl-indole-1-carboxylic acid methylamide]: in test [1], the pIC50 was 10.38. In test [2], the pKi is 9.21 and the inhibition at 0.05 µM turned out to be 99%.

Regarding `C#CCNC(=O)n1c(C)cc2cc(Oc3ccnc4cc(C(=O)N5CC[C@@H](O)C5)sc34)ccc21` [Example 4o, 5-[2-(3R-Hydroxy-pyrrolidine-1-carbonyl)-thieno[3,2-b]pyridin-7-yloxy]-2-methyl-indole-1-carboxylic acid prop-2-ynylamide], the pIC50 in test [1] is 10.15. In test [2], this molecule gave a pKi of 9.20 and an inhibition at 0.05 µM of 97%.

`Cc1cc2cc(Oc3ccnc4cc(C(=O)N5CC[C@@H](O)C5)sc34)ccc2n1C(=O)NC1CC1` [Example 4p, 5-[2-(3R-Hydroxy-pyrrolidine-1-carbonyl)-thieno[3,2-b]pyridin-7-yloxy]-2-methyl-indole-1-carboxylic acid cyclopropylamide]: the pIC50 in test [1] is 9.89. In addition, in test [2], the pKi was 9.60 and the inhibition at 0.05 µM was determined as 98%.

Turning to `C#CCNC(=O)n1c(C)cc2cc(Oc3ccnc4cc(C(=O)N5CCC[C@@H]5CO)sc34)ccc21` [Example 8q, 5-[2-(2R-Hydroxymethyl-pyrrolidine-1-carbonyl)-thieno[3,2-b]pyridin-7-yloxy]-2-methyl-indole-1-carboxylic acid prop-2-ynylamide], in test [1], the pIC50 was 9.72. In test [2], this molecule showed a negative-log Ki (pKi) of 9.54 and an inhibition at 0.05 µM of 97%.

In the case of `CCCNC(=O)n1c(C)cc2cc(Oc3ccnc4cc(C(=O)N5CC[C@H](O)C5)sc34)ccc21` [Example 9i, 5-[2-(3S-Hydroxy-pyrrolidine-1-carbonyl)-thieno[3,2-b]pyridin-7-yloxy]-2-methyl-indole-1-carboxylic acid propylamide], in test [1], the pIC50 was 9.43. Besides, in test [2], the pKi was 9.61 and the inhibition at 0.05 µM was found to be 98%.

For `Cc1cc2cc(Oc3ccnc4cc(C(=O)N5CC[C@H](O)C5)sc34)ccc2n1C(=O)NCCO` [Example 9k, 5-[2-(3S-Hydroxy-pyrrolidine-1-carbonyl)-thieno[3,2-b]pyridin-7-yloxy]-2-methyl-indole-1-carboxylic acid (2-hydroxy-ethyl)-amide], the pIC50 in test [1] was 9.31. In test [2], this molecule showed a pKi of 9.03 and an inhibition at 0.05 µM of 90%.

Turning to `Cc1cc2cc(Oc3ccnc4cc(C(=O)N5CC[C@H](O)C5)sc34)ccc2n1C(=O)NCCCO` [Example 9l, 5-[2-(3S-Hydroxy-pyrrolidine-1-carbonyl)-thieno[3,2-b]pyridin-7-yloxy]-2-methyl-indole-1-carboxylic acid (3-hydroxy-propyl)-amide], the pIC50 in test [1] is 9.57. In test [2], the pKi was 9.49 and the inhibition at 0.05 µM came to 97%.

Values taken from patent US6833456B2, “Indolyl-urea derivatives of thienopyridines useful as antiangiogenic agents, and methods for their use” (Agouron Pharmaceuticals, Inc., priority 2002, dated 2004).
